Reference: patent US10259818B2, “Bicyclic azaheterocyclobenzylamines as PI3K inhibitors” (Incyte Corporation, priority 2012, dated 2019)
Counter-ions that a name gives are not always drawn.

System: SUDHL-6 cell line (diffuse large B cell lymphoma)
Experiment: SUDHL-6 cell proliferation assay (Example B3)
Assay type: cell-based
Settings: SUDHL-6 cells, 3 days, Cell Titer-GLO
Procedure: Example B3: SUDHL-6 Cell Proliferation Assay
SUDHL-6 cell line (diffuse large B cell lymphoma) was purchased from ATCC (Manassas, Va.) and maintained in the culture medium recommended (RPMI and 10% FBS). To measure the anti-proliferation activity of the compounds through ATP quantitation, the SUDHL-6 cells was plated with the culture medium (5000 cells/well/per 200 μl) into 96-well polystyrene clear black tissue culture plate (Greiner-bio-one through VWR, NJ) in the presence or absence of a concentration range of test compounds. After 3 days, Cell Titer-GLO Luminescent (Promega, Madison, Wis.) cell culture agent was added to each well for 10 minutes at room temperature to stabilize the luminescent signal. This determines the number of viable cells in culture based on quantitation of the ATP present, which signals the presence of metabolically active cells. Luminescence was measured with the TopCount 384 (Packard Bioscience through Perkin Elmer, Boston, Mass.). […] IC50 data for the Examples is presented in Table 4 determined by the assay of Example B3.

With `CNC(=O)C1CC(N2Cc3c(C#N)c(Cl)cc(C(C)n4nc(C)c5c(N)ncnc54)c3OC(C)C2)C1` (single isomer, unassigned) [Example 114, 3-[9-[1-(4-amino-3-methyl-1H-pyrazolo[3,4-d]pyrimidin-1-yl)ethyl]-7-chloro-6-cyano-2-methyl-2,3-dihydro-1,4-benzoxazepin-4(5H)-yl]-N-methylcyclobutane-carboxamide] the IC50 (Homo sapiens, SU-DHL-6, 72 h) was at most 500 nM.

For `CNC(=O)C1CC(N2Cc3c(C#N)c(Cl)cc(C(C)n4nc(C)c5c(N)ncnc54)c3OC(C)C2)C1` (single isomer, unassigned) [Example 115, 3-[9-[1-(4-amino-3-methyl-1H-pyrazolo[3,4-d]pyrimidin-1-yl)ethyl]-7-chloro-6-cyano-2-methyl-2,3-dihydro-1,4-benzoxazepin-4(5H)-yl]-N-methylcyclobutane-carboxamide], the IC50 was at most 500 nM.

In the case of `Cc1c(Cl)cc(C(C)n2nc(C)c3c(N)ncnc32)c2c1CN(C1CN(C(=O)OC(C)(C)C)C1)CCO2` (stereo not shown) [Example 3, tert-Butyl 3-[9-[1-(4-amino-3-methyl-1H-pyrazolo[3,4-d]pyrimidin-1-yl)ethyl]-7-chloro-6-methyl-2,3-dihydro-1,4-benzoxazepin-4(5H)-yl]azetidine-1-carboxylate], the IC50 (Homo sapiens, SU-DHL-6, 72 h) is reported as at most 500 nM.

In the case of `CC(=O)N1CC(N2CCOc3c(C(C)n4nc(C)c5c(N)ncnc54)cc(Cl)c(C)c3C2)C1` (stereo not shown) [Example 4, 1-{1-[4-(1-Acetylazetidin-3-yl)-7-chloro-6-methyl-2,3,4,5-tetrahydro-1,4-benzoxazepin-9-yl]ethyl}-3-methyl-1H-pyrazolo[3,4-d]pyrimidin-4-amine], the IC50 (Homo sapiens, SU-DHL-6, 72 h) is reported as at most 500 nM.

Work on `Cc1c(Cl)cc(C(C)n2nc(C)c3c(N)ncnc32)c2c1CN(C1CCC1)CCO2` (stereo not shown) [Example 5, 1-[1-(7-Chloro-4-cyclobutyl-6-methyl-2,3,4,5-tetrahydro-1,4-benzoxazepin-9-yl)ethyl]-3-methyl-1H-pyrazolo[3,4-d]pyrimidin-4-amine bis(trifluoroacetate)] yielded an IC50 (Homo sapiens, SU-DHL-6, 72 h) of at most 500 nM.

In the case of `Cc1c(Cl)cc(C(C)n2nc(C)c3c(N)ncnc32)c2c1CN(C1CCCC1)CCO2` (stereo not shown) [Example 6, 1-[1-(7-Chloro-4-cyclopentyl-6-methyl-2,3,4,5-tetrahydro-1,4-benzoxazepin-9-yl)ethyl]-3-methyl-1H-pyrazolo[3,4-d]pyrimidin-4-amine bis(trifluoroacetate)], the IC50 (Homo sapiens, SU-DHL-6, 72 h) is reported as at most 500 nM.

`Cc1c(Cl)cc(C(C)n2nc(C)c3c(N)ncnc32)c2c1CN(C(C)C)CCO2` (stereo not shown) [Example 10, 1-[1-(7-Chloro-4-isopropyl-6-methyl-2,3,4,5-tetrahydro-1,4-benzoxazepin-9-yl)ethyl]-3-methyl-1H-pyrazolo[3,4-d]pyrimidin-4-amine bis(trifluoroacetate)] was tested, and the IC50 (Homo sapiens, SU-DHL-6, 72 h) was at most 500 nM.

In the case of `Cc1c(Cl)cc(C(C)n2nc(C)c3c(N)ncnc32)c2c1CN(C(=O)CC#N)CCO2` (stereo not shown) [Example 12, 3-[9-[1-(4-Amino-3-methyl-1H-pyrazolo[3,4-d]pyrimidin-1-yl)ethyl]-7-chloro-6-methyl-2,3-dihydro-1,4-benzoxazepin-4(5H)-yl]-3-oxopropanenitrile trifluoroacetate], the IC50 (Homo sapiens, SU-DHL-6, 72 h) is reported as at most 500 nM.

Work on `Cc1c(Cl)cc(C(C)n2nc(C)c3c(N)ncnc32)c2c1CN(S(C)(=O)=O)CCO2` (stereo not shown) [Example 13, 1-{1-[7-Chloro-6-methyl-4-(methylsulfonyl)-2,3,4,5-tetrahydro-1,4-benzoxazepin-9-yl]ethyl}-3-methyl-1H-pyrazolo[3,4-d]pyrimidin-4-amine Trifluoroacetate] yielded an IC50 (Homo sapiens, SU-DHL-6, 72 h) of at most 500 nM.

Compound `Cc1c(Cl)cc(C(C)n2nc(C)c3c(N)ncnc32)c2c1CN(S(=O)(=O)C1CC1)CCO2` (stereo not shown) [Example 18, 1-{1-[7-Chloro-4-(cyclopropylsulfonyl)-6-methyl-2,3,4,5-tetrahydro-1,4-benzoxazepin-9-yl]ethyl}-3-methyl-1H-pyrazolo[3,4-d]pyrimidin-4-amine Trifluoroacetate] has an IC50 (Homo sapiens, SU-DHL-6, 72 h) of 500 to 1000 nM.

`CCC(=O)N1CCOc2c(C(C)n3nc(C)c4c(N)ncnc43)cc(Cl)c(C)c2C1` (stereo not shown) [Example 20, 1-[1-(7-Chloro-6-methyl-4-propionyl-2,3,4,5-tetrahydro-1,4-benzoxazepin-9-yl)ethyl]-3-methyl-1H-pyrazolo[3,4-d]pyrimidin-4-amine Trifluoroacetate] gave an IC50 (Homo sapiens, SU-DHL-6, 72 h) of at most 500 nM.

In the case of `COCC(=O)N1CCOc2c(C(C)n3nc(C)c4c(N)ncnc43)cc(Cl)c(C)c2C1` (stereo not shown) [Example 21, 1-{1-[7-Chloro-4-(methoxyacetyl)-6-methyl-2,3,4,5-tetrahydro-1,4-benzoxazepin-9-yl]ethyl}-3-methyl-1H-pyrazolo[3,4-d]pyrimidin-4-amine Trifluoroacetate], the IC50 (Homo sapiens, SU-DHL-6, 72 h) is reported as at most 500 nM.

`Cc1c(Cl)cc(C(C)n2nc(C)c3c(N)ncnc32)c2c1CN(c1ncc(C#N)s1)CCO2` (stereo not shown) [Example 23, 2-[9-[1-(4-Amino-3-methyl-1H-pyrazolo[3,4-d]pyrimidin-1-yl)ethyl]-7-chloro-6-methyl-2,3-dihydro-1,4-benzoxazepin-4(5H)-yl]-1,3-thiazole-5-carbonitrile Trifluoroacetate] showed an IC50 (Homo sapiens, SU-DHL-6, 72 h) of at most 500 nM.

Work on `Cc1c(Cl)cc(C(C)n2nc(C)c3c(N)ncnc32)c2c1CN(c1cnccn1)CCO2` (stereo not shown) [Example 24, 1-[1-(7-Chloro-6-methyl-4-pyrazin-2-yl-2,3,4,5-tetrahydro-1,4-benzoxazepin-9-yl)ethyl]-3-methyl-1H-pyrazolo[3,4-d]pyrimidin-4-amine bis(trifluoroacetate)] yielded an IC50 (Homo sapiens, SU-DHL-6, 72 h) of 500 to 1000 nM.

Compound `CC(=O)N1CC(N2CCOc3c(C(C)n4nc(C)c5c(N)ncnc54)cc(Cl)c(F)c3C2)C1` (stereo not shown) [Example 34, 1-{1-[4-(1-Acetylazetidin-3-yl)-7-chloro-6-fluoro-2,3,4,5-tetrahydro-1,4-benzoxazepin-9-yl]ethyl}-3-methyl-1H-pyrazolo[3,4-d]pyrimidin-4-amine] has an IC50 (Homo sapiens, SU-DHL-6, 72 h) of at most 500 nM.

For `Cc1nn(C(C)c2cc(Cl)c(F)c3c2O[C@@H](C)CN(C2CC(C(=O)O)C2)C3)c2ncnc(N)c12` (stereo partly shown) [Example 41, 3-[9-[1-(4-Amino-3-methyl-1H-pyrazolo[3,4-d]pyrimidin-1-yl)ethyl]-7-chloro-6-fluoro-2-methyl-2,3-dihydro-1,4-benzoxazepin-4(5H)-yl]cyclobutanecarboxylic Acid Trifluoroacetate], the IC50 (Homo sapiens, SU-DHL-6, 72 h) was at most 500 nM.

`Cc1nn(C(C)c2cc(Cl)c(F)c3c2O[C@@H](C)CN(C2CC(C(=O)O)C2)C3)c2ncnc(N)c12` (stereo partly shown) [Example 42, 3-[9-[1-(4-Amino-3-methyl-1H-pyrazolo[3,4-d]pyrimidin-1-yl)ethyl]-7-chloro-6-fluoro-2-methyl-2,3-dihydro-1,4-benzoxazepin-4(5H)-yl]cyclobutanecarboxylic Acid Trifluoroacetate] was tested, and the IC50 was at most 500 nM.

`CC(=O)N1CC(N2CCOc3c(C(C)n4nc(C)c5c(N)ncnc54)cc(Cl)c(C#N)c3C2)C1` (stereo not shown) [Example 46, 4-(1-Acetylazetidin-3-yl)-9-[1-(4-amino-3-methyl-1H-pyrazolo [3,4-d]pyrimidin-1-yl)ethyl]-7-chloro-2,3,4,5-tetrahydro-1,4-benzoxazepine-6-carbonitrile] showed an IC50 (Homo sapiens, SU-DHL-6, 72 h) of at most 500 nM.

`Cc1nn(C(C)c2cc(Cl)c(C#N)c3c2OCCN(C2CN(CCO)C2)C3)c2ncnc(N)c12` (stereo not shown) [Example 47, 9-[1-(4-amino-3-methyl-1H-pyrazolo[3,4-d]pyrimidin-1-yl)ethyl]-7-chloro-4-[1-(2-hydroxyethyl)azetidin-3-yl]-2,3,4,5-tetrahydro-1,4-benzoxazepine-6-carbonitrile] showed an IC50 (Homo sapiens, SU-DHL-6, 72 h) of at most 500 nM.

Work on `Cc1nn(C(C)c2cc(Cl)c(C#N)c3c2OC(C)CN(C2CN(CC(N)=O)C2)C3)c2ncnc(N)c12` (stereo not shown) [Example 51, 2-{3-[9-[1-(4-Amino-3-methyl-1H-pyrazolo[3,4-d]pyrimidin-1-yl)ethyl]-7-chloro-6-cyano-2-methyl-2,3-dihydro-1,4-benzoxazepin-4(5H)-yl]azetidin-1-yl}acetamide] yielded an IC50 of at most 500 nM.

`Cc1nn(C(C)c2cc(Cl)c(C#N)c3c2O[C@@H](C)CN(C2CN(CCO)C2)C3)c2ncnc(N)c12` (stereo partly drawn) [Example 56, (2S)-9-[1-(4-Amino-3-methyl-1H-pyrazolo[3,4-d]pyrimidin-1-yl)ethyl]-7-chloro-4-[1-(2-hydroxyethyl)azetidin-3-yl]-2-methyl-2,3,4,5-tetrahydro-1,4-benzoxazepine-6-carbonitrile] was tested, and the IC50 (Homo sapiens, SU-DHL-6, 72 h) was at most 500 nM.

`Cc1nn(C(C)c2cc(Cl)c(C#N)c3c2O[C@@H](C)CN(C2CN(CCO)C2)C3)c2ncnc(N)c12` (stereo partly drawn) [Example 57, (2S)-9-[1-(4-Amino-3-methyl-1H-pyrazolo[3,4-d]pyrimidin-1-yl)ethyl]-7-chloro-4-[1-(2-hydroxyethyl)azetidin-3-yl]-2-methyl-2,3,4,5-tetrahydro-1,4-benzoxazepine-6-carbonitrile] was tested, and the IC50 was at most 500 nM.

Compound `Cc1nn(C(C)c2cc(Cl)c(C#N)c3c2OCCN(CCO)C3)c2ncnc(N)c12` (stereo not shown) [Example 58, 9-[1-(4-Amino-3-methyl-1H-pyrazolo[3,4-d]pyrimidin-1-yl)ethyl]-7-chloro-4-(2-hydroxyethyl)-2,3,4,5-tetrahydro-1,4-benzoxazepine-6-carbonitrile] has an IC50 (Homo sapiens, SU-DHL-6, 72 h) of at most 500 nM.

For `CC(=O)N1CC(N2Cc3c(F)c(Cl)cc(C(C)n4nc(C)c5c(N)ncnc54)c3OC(C)C2=O)C1` (stereo not shown) [Example 71, 4-(1-Acetylazetidin-3-yl)-9-[1-(4-amino-3-methyl-1H-pyrazolo[3,4-d]pyrimidin-1-yl)ethyl]-7-chloro-6-fluoro-2-methyl-4,5-dihydro-1,4-benzoxazepin-3(2H)-one], the IC50 (Homo sapiens, SU-DHL-6, 72 h) was 500 to 1000 nM.

Compound `Cc1nn(C(C)c2cc(Cl)c(F)c3c2OCCN(C2CN(C(=O)N(C)C)C2)C3)c2ncnc(N)c12` (stereo not shown) [Example 73, 3-[9-[1-(4-amino-3-methyl-1H-pyrazolo[3,4-d]pyrimidin-1-yl)ethyl]-7-chloro-6-fluoro-2,3-dihydro-1,4-benzoxazepin-4(5H)-yl]-N,N-dimethylazetidine-1-carboxamide] has an IC50 (Homo sapiens, SU-DHL-6, 72 h) of at most 500 nM.
